From paper PMC7834858 (Antiviral Research, 2020)
Where two headings read alike, the source gives them in different places.

Assays:
[1] = test system: human beta-coronavirus OC43–CoV; experiment: OC43-CoV cytopathic effect antiviral assay in HeLa cells; assay type: cell-based
SARS-CoV-2 3CLpro = SARS-CoV-2 3CLpro (Severe acute respiratory syndrome coronavirus 2, UniProt P0DTD1); assay type: biochemical
SARS-CoV-2 = assay type: cell-based
[2] = test system: human beta-coronavirus OC43–CoV; experiment: OC43-CoV cytopathic effect antiviral assay in MRC-5 cells; assay type: cell-based; details: MRC5, 120 h, read-out: OC-43 MRC-5 Cells EC50
COVID-19 = COVID-19 hospitalized patients; ref Beigel et al., 2020; cited from earlier work
[3] = no reducing agent vs 1 mM GSH vs 1 mM DTT

| SMILES | Antiviral activity against OC43 (in words) [1] | Concentrations at which SARS-CoV-2 3CLpro was inhibited (SARS-CoV-2 3CLpro) [µM] | Effect of reducing conditions on inhibition potency (SARS-CoV-2 3CLpro) | Inhibition of SARS-CoV-2 3CLpro activity in SAMDI-MS assay (in words) (SARS-CoV-2 3CLpro) | Cytotoxicity (in words) (HeLa cells) | Toxicity to Vero cells (in words) (VeroE6 cells) | Inhibition of SARS-CoV-2 replication (in words) (SARS-CoV-2) | EC50 [2] [µM] | Effect on mortality (COVID-19) | Concentrations at which SARS-CoV-2 3CLpro was inhibited (SARS-CoV-2 3CLpro; absence of reducing agent only) [µM] | Effect of reducing conditions on inhibition potency (SARS-CoV-2 3CLpro; [3]) | Inhibition of SARS-CoV-2 3CLpro activity in SAMDI-MS assay (in words) (SARS-CoV-2 3CLpro; reducing conditions (DTT)) | Inhibition of SARS-CoV-2 3CLpro activity in SAMDI-MS assay (in words) (SARS-CoV-2 3CLpro; reducing conditions (DTT), listed as shikonin) |
| --- | --- | --- | --- | --- | --- | --- | --- | --- | --- | --- | --- | --- | --- |
| O=c1c2ccccc2[se]n1-c1ccccc1 [Ebselen] | inactive | > 30 | impacted by the reducing condition | did not inhibit | cytotoxic | toxic to Vero cells | did not inhibit SARS-CoV-2 replication | > 100 | – | – | – | – | – |
| CCC(CC)COC(=O)[C@H](C)N[P@](=O)(OC[C@H]1O[C@@](C#N)(c2ccc3c(N)ncnn23)[C@H](O)[C@@H]1O)Oc1ccccc1 [Remdesivir] | – | – | – | – | – | – | – | 0.21 | no significant effect | – | – | – | – |
| CCN(CC)C(=S)SSC(=S)N(CC)CC [Disulfiram] | inactive | – | – | – | – | – | did not inhibit SARS-CoV-2 replication | > 100 | – | > 30 | impacted by the reducing condition | did not inhibit | – |
| CC(C)=CC[C@@H](O)C1=CC(=O)c2c(O)ccc(O)c2C1=O [Shikonin] | inactive | – | – | – | cytotoxic | toxic to Vero cells | did not inhibit SARS-CoV-2 replication | > 100 | – | – | marked loss of inhibition in the presence of DTT or GSH | failed to inhibit | did not inhibit |
